Laboratory results as given in patent US20240336593A1, “Compound Having Antitumor Activity And Use Thereof” (lnnovStoneTherapeutics Limited, priority 2020, published 2024).
pIC50: −log10 of the molar value.

Molecular target: PRMT5 (Homo sapiens (Human), UniProt O14744)
Assay: Inhibitory activity against PRMT5 enzyme by radioisotopic method
Type: biochemical
Conditions: PRMT5 5 nM, [3H]-SAM 0.3 μM, polypeptide substrate GL-27 100 nM, room temperature
Procedure: Test Example 1. Test on the inhibitory activity of the compounds of the invention against PRMT5 enzyme by radioisotopic method
Test method: A 1× enzyme reaction buffer (10 mM Tris 8.0 (Sigma, Cat. No. T2694-1L), 0.01% Tween-20 (Sigma, Cat. No. P2287-100 ML), 1 mM DTT (Sigma, Cat. No. D0632-10G)) was prepared. PRMT5 (Active Motif, Cat. No. 31921) and [3H]—SAM (PerkinElmer, Cat. No. NET155V001MC) were added to the 1×enzyme reaction buffer, to prepare a 25/15× mixed solution (PRMT5 final concentration: 5 nM, [3H]—SAM final concentration: 0.3 μM). 15 μL of this solution was transferred into a 384-well microplate (Corning 384-well Polypropylene Storage Microplates, Cat. No. 3657) with various concentrations of the compounds (DMSO final concentration 1%), and incubated at room temperature for 60 minutes. A polypeptide substrate, GL-27 (Ac-[…]-K (Biotin) (GL Biochem, Cat. No. 342095)), was added into the 1×enzyme reaction buffer to prepare a 25/10× substrate solution. Then 10 μL of the polypeptide substrate solution (final concentration of the polypeptide substrate: 100 nM) was added, a reaction was stirred at room temperature for 120 minutes, and then 5 μL 6× ice cold SAM (Sigma, Cat. No. A7007-100 MG) solution was added to stop the reaction (SAM final concentration: 0.125 mM). 25 µL of the reaction mixture was transferred into a FlashPlate (Streptavidin FlashPlate HTS PLUS, High Capacity, 384-well, Perkin Elmer, Cat. No. SMP410A001PK), and incubated at room temperature for 1 h. After washed three times with distilled water containing 0.1% Tween-20, the microplate was read on a MicroBeta reader for CPM data (Counts Per Minute). […] Then the inhibition rate Inh % (Y) corresponding to each concentration (X) was input in EXCEL, and the IC50 value (the half maximal inhibitory concentration) of each compound was calculated with the XLfit plug-in according to the built-in four-parameter fitting equation Y=Bottom+(Top-Bottom)/(1+(IC50/X)[…]).

Sequence of PRMT5 (O14744 whole entry): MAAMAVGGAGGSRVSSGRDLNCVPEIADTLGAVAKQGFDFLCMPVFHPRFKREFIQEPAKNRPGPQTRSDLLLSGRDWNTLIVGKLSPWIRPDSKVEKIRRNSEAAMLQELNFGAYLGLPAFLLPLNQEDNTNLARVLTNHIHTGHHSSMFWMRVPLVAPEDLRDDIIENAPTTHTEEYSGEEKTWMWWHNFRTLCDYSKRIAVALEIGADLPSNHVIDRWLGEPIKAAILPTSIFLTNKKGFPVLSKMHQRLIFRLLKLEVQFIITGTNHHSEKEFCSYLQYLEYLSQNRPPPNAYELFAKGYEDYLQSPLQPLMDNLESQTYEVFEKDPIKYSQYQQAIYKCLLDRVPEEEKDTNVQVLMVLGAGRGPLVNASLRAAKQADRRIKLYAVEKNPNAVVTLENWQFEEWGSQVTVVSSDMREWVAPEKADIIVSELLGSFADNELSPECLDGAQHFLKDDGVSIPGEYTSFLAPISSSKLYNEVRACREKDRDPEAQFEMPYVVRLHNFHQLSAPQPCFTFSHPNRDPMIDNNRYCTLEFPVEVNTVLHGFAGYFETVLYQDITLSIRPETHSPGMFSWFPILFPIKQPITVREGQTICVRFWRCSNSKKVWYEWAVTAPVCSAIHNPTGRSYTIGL
Sequence of PRMT5 (Q9BQA1 whole entry partner): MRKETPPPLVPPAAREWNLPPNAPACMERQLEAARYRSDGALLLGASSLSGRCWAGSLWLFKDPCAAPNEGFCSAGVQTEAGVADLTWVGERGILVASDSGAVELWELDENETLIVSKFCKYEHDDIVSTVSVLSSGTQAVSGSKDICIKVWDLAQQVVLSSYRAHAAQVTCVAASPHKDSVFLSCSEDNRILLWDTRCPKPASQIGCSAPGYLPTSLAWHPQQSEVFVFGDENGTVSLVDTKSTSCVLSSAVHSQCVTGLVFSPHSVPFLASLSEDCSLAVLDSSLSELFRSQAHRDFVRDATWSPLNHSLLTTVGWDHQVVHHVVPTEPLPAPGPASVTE

SMILES	pIC50
COc1ccc(F)cc1Nc1cc(N2CC[C@@H](N3CCc4ccccc4C3)[C@H](O)C2)ncn1 (relative stereo) [Example 92, trans-1-(6-((5-fluoro-2-methoxyphenyl)amino)pyrimidin-4-yl)-4-(3,4-dihydroisoquinolin-2(1H)-yl)piperidin-3-ol]	> 7.00
O[C@H]1CN(c2cc(Nc3ccc(Cl)cc3)ncn2)CC[C@@H]1N1CCc2ccccc2C1 (relative stereo) [Example 62, trans-4-(3,4-dihydroisoquinolin-2(1H)-yl)-1-(6-((4-chlorophenyl)amino)pyrimidin-4-yl)piperidin-3-ol]	> 7.00
O[C@H]1CN(c2cc(Nc3ccc(F)c(F)c3)ncn2)CC[C@@H]1N1CCc2ccccc2C1 (relative stereo) [Example 78, trans-1-(6-((3,4-difluorophenyl)amino)pyrimidin-4-yl)-4-(3,4-dihydroisoquinolin-2(1H)-yl)piperidin-3-ol]	> 7.00
CC(C)(C)OC(=O)N1CCC(Nc2cc(C(=O)N3CC[C@H](N4CCc5ccccc5C4)[C@@H](O)C3)ncn2)CC1 (relative stereo) [Example 110, t-butyl trans-4-((6-(4-(3,4-dihydroisoquinolin-2(1H)-yl)-3-hydroxypiperidine-1-carbonyl)pyrimidin-4-yl)amino)piperidine-1-carboxylate]	> 7.00
O[C@H]1CN(c2cc(Nc3ccccc3C3CC3)ncn2)CC[C@@H]1N1CCc2ccccc2C1 (relative stereo) [Example 51, trans-4-(3,4-dihydroisoquinolin-2(1H)-yl)-1-(6-((2-cyclopropylphenyl)amino)pyrimidin-4-yl)piperidin-3-ol]	> 7.00
CCOc1ccccc1Nc1cc(N2CC[C@@H](N3CCc4ccccc4C3)[C@H](O)C2)ncn1 (relative stereo) [Example 90, trans-1-(6-((2-ethoxyphenyl)amino)pyrimidin-4-yl)-4-(3,4-dihydroisoquinolin-2(1H)-yl)piperidin-3-ol]	> 7.00
COCCN1CCC(Nc2cc(C(=O)N3CC[C@H](N4CCc5ccccc5C4)[C@@H](O)C3)ncn2)CC1 [Example 96]	> 7.00
O=C(c1cc(N2CC[C@H](N3CCc4ccccc4C3)[C@@H](O)C2)ncn1)N1CC[C@H](N2CCc3ccccc3C2)[C@@H](O)C1 [Example 97]	> 7.00
O[C@H]1CN(c2cc(Nc3ccc(N4CCOCC4)cc3)ncn2)CC[C@@H]1N1CCc2ccccc2C1 (relative stereo) [Example 49, trans-4-(3,4-dihydroisoquinolin-2(1H)-yl)-1-(6-((4-morpholinylphenyl)amino)pyrimidin-4-yl)piperidin-3-ol]	> 7.00
O=C(C(=O)N1CCC(Nc2cc(C(=O)N3CC[C@H](N4CCc5ccccc5C4)[C@@H](O)C3)ncn2)CC1)C1CC1 (relative stereo) [Example 99, trans-1-cyclopropyl-2-(4-((6-(4-(3,4-dihydroisoquinolin-2(1H)-yl)-3-hydroxypiperidine-1-carbonyl)pyrimidin-4-yl)amino)piperidin-1-yl)ethane-1,2-dione]	> 7.00
C=Cc1nc(NC2CCN(C(C)=O)CC2)cc(C(=O)N2CC[C@@H](N3CCc4ccccc4C3)[C@H](O)C2)n1 [Example 152, 1-(4-((6-((3R,4R)-4-(3,4-dihydroisoquinolin-2(1H)-yl)-3-hydroxypiperidine-1-carbonyl)-2-vinylpyrimidin-4-yl)amino)piperidin-1-yl)ethan-1-one]	> 7.00
O[C@@H]1CN(c2cc(Nc3ccccc3N3CCCC3)ncn2)CC[C@H]1N1CCc2ccccc2C1 (relative stereo) [Example 80, trans-4-(3,4-dihydroisoquinolin-2(1H)-yl)-1-(6-((2-(pyrrolidin-1-yl)phenyl)amino)pyrimidin-4-yl)piperidin-3-ol]	> 7.00
O[C@H]1CN(c2cc(Nc3cccc(C4CC4)c3)ncn2)CC[C@@H]1N1CCc2ccccc2C1 (relative stereo) [Example 35, trans-1-(6-((3-cyclopropylphenyl)amino)pyrimidin-4-yl)-4-(3,4-dihydroisoquinolin-2(1H)-yl)piperidin-3-ol]	> 7.00
CC(=O)N1CCC(Nc2cc(C(=O)N3CC[C@H](N4CCc5ccccc5C4)[C@@H](O)C3)c(C(F)(F)F)cn2)CC1 (relative stereo) [Example 102, trans-1-(4-((4-(4-(3,4-dihydroisoquinolin-2(1H)-yl)-3-hydroxypiperidine-1-carbonyl)-5-(trifluoromethyl)pyridin-2-yl)amino)piperidin-1-yl)ethan-1-one]	> 7.00
CC(=O)N1CCC(Nc2cc(C(=O)N3CC[C@@H](N4CCc5ccccc5C4)[C@H](O)C3)nc(-c3ccc(C)s3)n2)CC1 [Example 153, 1-(4-((6-((3R,4R)-4-(3,4-dihydroisoquinolin-2(1H)-yl)-3-hydroxypiperidine-1-carbonyl)-2-(5-methylthiophen-2-yl)pyrimidin-4-yl)amino)piperidin-1-yl)ethan-1-one]	> 7.00
O[C@H]1CN(c2cc(Nc3ccccc3-c3ccccc3)ncn2)CC[C@@H]1N1CCc2ccccc2C1 (relative stereo) [Example 66, trans-1-(6-([1,1′-biphenyl]-2-ylamino)pyrimidin-4-yl)-4-(3,4-dihydro-isoquinolin-2(1H)-yl)piperidin-3-ol]	> 7.00
CC(C)(C)c1ccccc1Nc1cc(N2CC[C@H](N3CCc4ccccc4C3)[C@@H](O)C2)ncn1 (relative stereo) [Example 56, trans-4-(3,4-dihydroisoquinolin-2(1H)-yl)-1-(6-((2-t-butylphenyl)amino)pyrimidin-4-yl)piperidin-3-ol]	> 7.00
CC(=O)N1CCC(CNc2cc(C(=O)N3CC[C@H](N4CCc5ccccc5C4)[C@@H](O)C3)ncn2)CC1 [Example 103]	> 7.00
C#Cc1nc(NC2CCN(C(C)=O)CC2)cc(C(=O)N2CC[C@@H](N3CCc4ccccc4C3)[C@H](O)C2)n1 [Example 150, 1-(4-((6-((3R,4R)-4-(3,4-dihydroisoquinolin-2(1H)-yl)-3-hydroxypiperidine-1-carbonyl)-2-ethynylpyrimidin-4-yl)amino)piperidin-1-yl)ethan-1-one]	> 7.00
O[C@@H]1CN(c2cc(Nc3cccc(F)c3F)ncn2)CC[C@H]1N1CCc2ccccc2C1 (relative stereo) [Example 87, trans-1-(6-((2,3-difluorophenyl)amino)pyrimidin-4-yl)-4-(3,4-dihydroisoquinolin-2(1H)-yl)piperidin-3-ol]	> 7.00
O[C@H]1CN(c2cc(Nc3cccc(F)c3)ncn2)CC[C@@H]1N1CCc2ccccc2C1 (relative stereo) [Example 42, trans-1-(6-((3-fluorophenyl)amino)pyrimidin-4-yl)-4-(3,4-dihydroisoquinolin-2(1H)-yl)piperidin-3-ol]	> 7.00
COc1nc(NC2CCN(C(C)=O)CC2)cc(C(=O)N2CC[C@H](N3CCc4ccccc4C3)[C@@H](O)C2)n1 (relative stereo) [Example 120, 1-(4-((6-(trans-4-(3,4-dihydroisoquinolin-2(1H)-yl)-3-hydroxypiperidine-1-carbonyl)-2-methoxypyrimidin-4-yl)amino)piperidin-1-yl)ethan-1-one]	> 7.00
CC(=O)N1CCC(Sc2cc(C(=O)N3CC[C@H](N4CCc5ccccc5C4)[C@@H](O)C3)ncn2)CC1 (relative stereo) [Example 119, trans-1-(4-((6-(4-(3,4-dihydroisoquinolin-2(1H)-yl)-3-hydroxypiperidine-1-carbonyl)pyrimidin-4-yl)thio)piperidin-1-yl)ethan-1-one]	> 7.00
CNC(=O)c1cccc(Nc2cc(C(=O)N3CC[C@H](N4CCc5ccccc5C4)[C@@H](O)C3)ncn2)c1 (relative stereo) [Example 134, trans-3-((6-(4-(3,4-dihydroisoquinolin-2(1H)-yl)-3-hydroxypiperidine-1-carbonyl)pyrimidin-4-yl)amino)-N-methylbenzamide]	> 7.00
O[C@H]1CN(c2cc(Nc3cccc4c3OCO4)ncn2)CC[C@@H]1N1CCc2ccccc2C1 [Example 83, trans-1-(6-(benzo[d][1,3]dioxazol-4-ylamino)pyrimidin-4-yl)-4-(3,4-dihydroisoquinolin-2(1H)-yl)piperidin-3-ol]	> 7.00
COCC(=O)N1CCC(Nc2cc(C(=O)N3CC[C@H](N4CCc5ccccc5C4)[C@@H](O)C3)ncn2)CC1 (relative stereo) [Example 113, 1-(4-((6-(trans-4-(3,4-dihydroisoquinolin-2(1H)-yl)-3-hydroxypiperidine-1-carbonyl)pyrimidin-4-yl)amino)piperidin-1-yl)-2-methoxyethan-1-one]	> 7.00
